Data as given in patent US7196074B2, “Methods of making, using and pharmaceutical formulations comprising 7α, 11β-dimethyl-17β-hydroxyestra-4, 14-dien-3-one and 17 esters thereof” (The United States of America as represented by the …, priority 2000, dated 2007).

Key:
ventral prostate weight [1] = test: Oral androgenic potency, ventral prostate weight assay in orchidectomized immature rats (gavage daily for seven days); type: in vivo, Sprague-Dawley rats; details: ventral prostate weight; for oral androgenic activity, times as potent as methyltestosterone: gavage daily for 7 days in 10% ethanol/sesame oil (oily carrier)
Protocol: (§1) Immature (about 21-day-old) Sprague-Dawley rats were orchidectomized under anesthesia, and randomly assignee to groups of ten animals for each dose level of the active undergoing testing. Each active was dissolved in 10% ethanol/sesame oil and administered by gavage (oral) each day for seven days beginning on the date of the orchidectomy. The animals were sacrificed 24 hours after the last dose, and the ventral prostate and seminal vesicles were excised, cleaned of fat and connective tissue, blotted on moist filter paper and weighed to the nearest 0.1 mg. See, e.g., Hershberger, L. et al, Myotrophic Activity of 19-nortestosterone And Other Steroids Determined By Modified Levator And Muscle Method, Proc. Soc. Exptl. Biol. Med 83 175–180 (1953). Regression analysis was performed by conventional methods using a PROPHET data management system. See, e.g., Bliss, C., The Statistics of Bioassay (Academic Press, New York, 1952); Hollister, C., Nucleic Acids Res. 16 1873–75 (1988). Ventral prostate weight was used as the endpoint because it is the sensitive organ to androgenic stimulation.
as §1, with “(oral) or subcutaneous injection” for “(oral)”, “mg.” for “mg. See, e.g., Hershberger, L. et al, Myotrophic Activity of 19-nortestosterone And Other Steroids Determined By Modified Levator And Muscle Method, Proc. Soc. Exptl. Biol. Med 83 175–180 (1953).”, “system.” for “system. See, e.g., Bliss, C., The Statistics of Bioassay (Academic Press, New York, 1952); Hollister, C., Nucleic Acids Res. 16 1873–75 (1988).”
Immature (about 21-day-old) Sprague-Dawley rats were orchidectomized under anesthesia, and randomly assignee to groups of ten animals for each dose level of the active undergoing testing. Four dosage forms were prepared. The first two forms constituted a solution of each active in 10% ethanol/sesame oil. The third and fourth dosage forms constituted a suspension of each active in an aqueous carrier (as described in Example 2, supra). These dosage forms were then administered by gavage (oral) to separate animal groups each day for seven days beginning on the date of the orchidectomy. Each carrier was also administered (alone) to separate groups of animals as a control. The animals were sacrificed 24 hours after the last dose, and the ventral prostate and seminal vesicles were excised, cleaned of fat and connective tissue, blotted on moist filter paper and weighed to the nearest 0.1 mg. See, e.g., Hershberger, L. et al, Myotrophic Activity of 19-nortestosterone And Other Steroids Determined By Modified Levator And Muscle Method, Proc. Soc. Exptl. Biol. Med. 83 175–180 (1953). Regression analysis was performed by conventional methods using a PROPHET data management system. See, e.g., Bliss, C., The Statistics of Bioassay (Academic Press, New York, 1952); Hollister, C., Nucleic Acids Res. 16 1873–75 (1988). Ventral prostate weight was used as the endpoint because it is the sensitive organ to androgenic stimulation.
Immature (about 21 day old) Sprague male rats were orchidectomized under anesthesia, and randomly assignee to groups often animals for each dose level of the active undergoing testing. Animals were maintained under standard conditions of housing and had free access to food and water. Illumination was controlled for 14 hour periods of light and 10 hours of darkness. Each active was dissolved in 10% ethanol/sesame oil and administered by gavage (oral) each day for seven days beginning on the date of the orchidectomy. […]

ventral prostate weight [2] = test: Subcutaneous androgenic potency, ventral prostate weight assay in orchidectomized immature rats (injection daily for seven days); type: in vivo, Sprague-Dawley rats
Protocol: as §1, with “(oral) or subcutaneous injection” for “(oral)”, “mg.” for “mg. See, e.g., Hershberger, L. et al, Myotrophic Activity of 19-nortestosterone And Other Steroids Determined By Modified Levator And Muscle Method, Proc. Soc. Exptl. Biol. Med 83 175–180 (1953).”, “system.” for “system. See, e.g., Bliss, C., The Statistics of Bioassay (Academic Press, New York, 1952); Hollister, C., Nucleic Acids Res. 16 1873–75 (1988).”
as §1, with “subcutaneous injection” for “gavage (oral)”, “Bid. Med.” for “Biol. Med”
Immature (about 22-day-old) Sprague-Dawley male rats were orchidectomized under anesthesia, and randomly assignee to groups of ten animals for each dose level of the active undergoing testing. […] Illumination was controlled for 14 hour periods of light and 10 hours of darkness.
Each active was administered by subcutaneous injection of 0.6 mg of test material in aqueous suspending vehicle (ASV) and/or an oily vehicle (10% ethanol/sesame oil) on the day of surgery. Testosterone enanthate in sesame oil was used as a standard. The ventral prostate and seminal vesicles were excised, cleaned of fat and connective tissue, blotted on moist filter paper and weighed to the nearest 0.1 mg. Regression analysis was performed by conventional methods using a PROPHET data management system. Ventral prostate weight was used as the endpoint because it is the sensitive organ to androgenic stimulation.

[3] = gavage daily for 7 days in 10% ethanol/sesame oil

## CCCCCCCCCCC(=O)O[C@H]1CC[C@H]2[C@H]3[C@H]([C@@H](C)C[C@]12C)[C@H]1CCC(=O)C=C1C[C@H]3C [Compound II, 7α,11β-dimethyl-17β-hydroxyestr-4-en-3-one 17-undecanoate]
Ventral prostate weight [1]
  oral androgenic activity, times as potent as methyltestosterone: 2.36 times
Ventral prostate weight [1]; gavage daily for 7 days, suspension in aqueous carrier
  oral androgenic potency relative to methyltestosterone in the same aqueous carrier: 0.95 times
Ventral prostate weight [2]; subcutaneous injection daily for 7 days in 10% ethanol/sesame oil (oily carrier), ventral prostate weight
  subcutaneous androgenic activity relative to testosterone: 0.52 times

## CCCC[C@H]1CC[C@H](C(=O)O[C@H]2CC[C@H]3[C@H]4[C@H]([C@@H](C)C[C@]23C)[C@H]2CCC(=O)C=C2C[C@H]4C)CC1 (relative stereo) [Compound I, 7α,11β-Dimethyl-17β-hydroxy-4-estren-3-one 17β-trans-4-n-butylcyclohexane carboxylate]
Ventral prostate weight [1]
  oral androgenic activity, times as potent as methyltestosterone: 3.77 times
Ventral prostate weight [1]; [3]
  oral androgenic activity, times as potent as testosterone bucyclate (1781 V-1): at least 4 times
  oral androgenic activity, times as potent as the free alcohol (1321 D): at least 4 times
  oral androgenic activity, times more potent than testosterone (111-C): 10–100 times
  oral androgenic activity, times more potent than testosterone enanthate (112a): 10–100 times
Ventral prostate weight [2]; subcutaneous injection daily for 7 days in 10% ethanol/sesame oil, ventral prostate weight
  activity after subcutaneous administration (in words): relatively weak activity
Ventral prostate weight [2]; ventral prostate weight assay following subcutaneous administration, alcohol of G = 1.0 (assigned), value is for the free alcohol of the listed ester
  Androgenic Potency (activity of corresponding alcohol): 19.3
